Assay results from patent publication US10166218B2, “3-(1H-indol-2-yl)-1H-pyrazolo[3,4-C]pyridines and therapeutic uses thereof” (Samumed, LLC, priority 2015, dated 2019).

How the values were obtained:
Assay type in all cases: cell-based
[1] = system: Wnt activity (Sp5-Luc reporter, TCF/LEF binding sites) in SW480 colon carcinoma cells; assay: Screening assay for Wnt activity: Sp5-Luc reporter gene assay in stably transduced SW480 cells; conditions: Homo sapiens, overnight incubation
From the text: The screening assay for Wnt activity is described as follows. Reporter cell lines can be generated by stably transducing cancer cell lines (e.g., colon cancer) or primary cells (e.g., IEC-6 intestinal cells) with a lentiviral construct that includes a Wnt-responsive promoter driving expression of the firefly luciferase gene.
SW480 colon carcinoma cells were transduced with a lentiviral vector expressing luciferase with a human Sp5 promoter consisting of a sequence of eight TCF/LEF binding sites. SW480 cells stably expressing the Sp5-Luc reporter gene and a hygromycin resistance gene were selected by treatment with 150 μg/mL of hygromycin for 7 days. These stably transduced SW480 cells were expanded in cell culture and used for all further screening activities. Each compound was dissolved in DMSO as a 10 mM stock and used to prepare compound source plates. Serial dilution (1:3, 10-point dose-response curves starting from 10 μM) and compound transfer was performed using the ECHO 550 (Labcyte, Sunnyvale, Calif.) into 384-well white solid bottom assay plates (Greiner Bio-One) with appropriate DMSO backfill for a final DMSO concentration of 0.1%. For Sp5-Luc reporter gene assays, the cells were plated at 4,000 cells/well in 384-well plates with medium containing 1% fetal bovine serum and incubated overnight at 37° C. and 5% CO2. Following incubation, 20 μl of BrightGlo luminescence reagent (Promega) was added to each well of the 384-well assay plates. The plates were placed on an orbital shaker for 2 min and then luminescence was quantified using the Envision (Perkin Elmer) plate reader. Readings were normalized to DMSO only treated cells, and normalized activities were utilized for EC50 calculations using the dose-response log (inhibitor) vs. response-variable slope (four parameters) nonlinear regression feature available in GraphPad Prism 5.0 (or Dotmatics). For EC50 of >10 μM, the percent inhibition at 10 μM is provided.

SW480 colon cancer cells = assay: Cell viability assay (CellTiter-Blue) in SW480 colon cancer cells; conditions: Homo sapiens, 96 h, four days, CellTiter-Blue
Method: Representative compounds were screened using the following assay procedure to assess the effect on cell viability as described below.
Each compound was dissolved in DMSO as a 10 mM stock and used to prepare compound source plates. Serial dilution (1:3, 8-point dose-response curves from 10 μM to 0.0045 μM) and compound transfer was performed using the ECHO 550 (Labcyte, Sunnyvale, Calif.) into 96-well clear bottom, black-walled plates (Corning-Costar).
Approximately 2×10^3 SW480 colon cancer cells were seeded into each well and allowed to incubate in the presence or absence of compound for four days at 37° C./5% CO2. Eight replicates of DMSO-treated cells served as controls and cells treated with compound were performed in duplicate.
After incubation, 20 μL of CellTiter-Blue (Promega) was added to each well allowed to incubate for approximately 3 hours. This reagent was a buffered solution which contains resazurin, metabolically active cells were able to reduce rezarurin (blue) into resorufin (pink) which was highly fluorescent. This measured fluorescence was used as a readout for cell viability.
After incubation, the plates were read at Ex 560 nm Em 590 nm (Cytation 3, BioTek). Dose-response curves were generated and EC50 concentration values were calculated using non-linear regression curve fit in the GraphPad Prism (San Diego, Calif.) or Dotmatics' Studies Software (Bishops Stortford, UK). For EC50 of >10 μM, the percent inhibition at 10 μM is provided.

[2] = system: primary human fibroblasts derived from IPF patients (LL29 cells) treated with TGF-β1; α-smooth muscle actin (αSMA); assay: Inhibition of the fibrotic process: αSMA staining in TGF-β1 treated primary human fibroblasts from IPF patients (LL29 cells); conditions: Fibroblast, 96 h, TGF-β1 20 ng/mL, 4 days, % cells positive for αSMA
From the text: Representative compounds were screened using primary human fibroblasts (derived from IPF patients) treated with TGF-β1 to determine their ability to inhibit the fibrotic process.
Primary human fibroblasts derived from IPF patients (LL29 cells) [^1Xiaoqiu Liu, et. al., “Fibrotic Lung Fibroblasts Show Blunted Inhibition by cAMP Due to Deficient cAMP Response Element-Binding Protein Phosphorylation”, Journal of Pharmacology and Experimental Therapeutics (2005), 315(2), 678-687; ^2Watts, K. L., et. al., “RhoA signaling modulates cyclin D1 expression in human lung fibroblasts; implications for idiopathic pulmonary fibrosis”, Respiratory Research (2006), 7(1), 88] were obtained from American Type Culture Collection (ATCC) and expanded in F12 medium supplemented with 15% Fetal Bovine Serum and Penicillin/Streptomycin.
Each compound was dissolved in DMSO as a 10 mM stock and used to prepare compound source plates. Serial dilution (1:2, 11-point dose-response curves from 10 μM to 1.87 nM) and compound transfer was performed using the ECHO 550 (Labcyte, Sunnyvale, Calif.) into 384-well clear bottom assay plates (Greiner Bio-One) with appropriate DMSO backfill for a final DMSO concentration of 0.1%. LL29 cells are plated at 1,500 cells/well in 80 μL/well F12 medium supplemented with 1% Fetal Bovine Serum. One hour after addition of the cells, TGF-β1 (Peprotech; 20 ng/mL) was added to the plates to induce fibrosis (ref. 1 and 2 above). Wells treated with TGF-β1 and containing DMSO were used as controls. Cells were incubated at 37° C. and 5% CO2 for 4 days. Following incubation for 4 days, SYTOX green nucleic acid stain (Life Technologies [Thermo Fisher Scientific]) was added to the wells at a final concentration of 1 μM and incubated at room temperature for 30 min. Cells were then fixed using 4% formaldehyde (Electron Microscopy Sciences), washed 3 times with PBS followed by blocking and permeabilization using 3% Bovine Serum Albumin (BSA; Sigma) and 0.3% Triton X-100 (Sigma) in PBS. Cells were then stained with antibody specific to α-smooth muscle actin (αSMA; Abcam) (ref. 1 and 2 above) in 3% Bovine Serum Albumin (BSA; Sigma) and 0.3% Triton X-100 (Sigma) in PBS, and incubated overnight at 4° C. Cells were then washed 3 times with PBS, followed by incubation with Alexa Flor-647 conjugated secondary antibody (Life Technologies [Thermo Fisher Scientific]) and DAPI at room temperature for 1 hour. Cells were then washed 3 times with PBS and plates were sealed for imaging. αSMA staining was imaged by excitation at 630 nm and emission at 665 nm and quantified using the Compartmental Analysis program on the CellInsight CX5 (Thermo Scientific). Dead or apoptotic cells were excluded from analysis based on positive SYTOX green staining. % of total cells positive for αSMA were counted in each well and normalized to the average of 11 wells treated with TGF-β1 on the same plate using Dotmatics' Studies Software. The normalized averages (fold change over untreated) of 3 replicate wells for each compound concentration were used to create dose-responses curves and EC50 values were calculated using non-linear regression curve fit in the Dotmatics' Studies Software. For EC50 of >10 μM, the percent inhibition at 10 μM is provided.

IL-6 (THP-1 cells) = assay: Inhibition of IL-6 in LPS-stimulated THP-1 human monocyte cells (HTRF); conditions: inhibition of IL-6 in LPS-stimulated THP-1 cells, HTRF, 10-point dose-response starting from 10 μM
Method: Human monocyte cell line (THP-1 cells; Catalog # TIB-202, ATCC, Manassas, Va.) were cultured in Roswell Park Memorial Institute (RPMI) 1640 Medium (Catalog #21870-100, Buffalo, N.Y.) with 1% L-glutamine, 1% HEPES, 1% Sodium Pyruvate, 2% Sodium Bicarbonate supplemented with 100 units/mL penicillin, 50 μg/mL streptomycin, 2-mercaptoethanol (0.05 mM) [basal medium] and 10% fetal bovine serum (Catalog #16140089, Life Technologies, Carlsbad, Calif.) at 37° C. and 5% CO2.
THP-1 cells were cultured in basal media with 1% FBS for 24 hours before the start of the assay. Each compound was dissolved in DMSO as a 10 mM stock and used to prepare compound source plates. Serial dilution (1:3, 10-point dose-response curves starting from 10 μM) and compound transfer was performed using the ECHO 550 (Labcyte, Sunnyvale, Calif.) into 384-well white low volume assay plates (Greiner Bio-One) with appropriate DMSO backfill for a final DMSO concentration of 0.1%. THP-1 cells were plated at 5000 cells/well in the 384-well plates and incubated at 37° C. for 2 h. 500 ng/mL of LPS was added after 2 hours and cells were incubated for another 22 hours at 37° C. Plates were spun in a centrifuge for 1 minute at […] and a mixture of anti-IL6 XL665, and anti-IL6 Cryptate diluted in reconstitution buffer (Cisbio Inc.) was added to each well. Following incubation for 3 hrs at room temperature, Homogeneous Time-Resolved Fluorescence (HTRF) was measured using the Envision (Perkin Elmer) at 665 nm and […]. The ratio of fluorescence at 665 nm to 620 nm was used as a readout for IL6 quantification. All samples were processed in duplicate. Readings were normalized to DMSO treated cells and normalized activities were utilized for EC50 calculations using the dose-response log (inhibitor) vs. response-variable slope (four parameters) nonlinear regression feature available in GraphPad Prism 5.0 (or Dotmatics). For EC50 of >10 μM, the percent inhibition at 10 μM is provided.

| Structure (SMILES) | EC50 [1] [nM] | EC50 (SW480 colon cancer cells) [µM] | EC50 (IL-6 (THP-1 cells)) [nM] | EC50 [2] [nM] |
| --- | --- | --- | --- | --- |
| CCC(=O)Nc1cncc(-c2cc3c(-c4cc5c(-c6cccc(F)c6)cccc5[nH]4)n[nH]c3cn2)c1 [Compound 1, N-(5-(3-(4-(3-Fluorophenyl)-1H-indol-2-yl)-1H-pyrazolo[3,4-c]pyridin-5-yl)pyridin-3-yl)propionamide] | 570 | 4.07 | 2920 | 529 |
| CC(C)(C)CC(=O)Nc1cncc(-c2cc3c(-c4cc5c(-c6cccc(F)c6)cccc5[nH]4)n[nH]c3cn2)c1 [Compound 16, N-(5-(3-(4-(3-Fluorophenyl)-1H-indol-2-yl)-1H-pyrazolo[3,4-c]pyridin-5-yl)pyridin-3-yl)-3,3-dimethylbutanamide] | 1970 | 3.92 | 1870 | 640 |
| CC(C)(C)C(=O)Nc1cncc(-c2cc3c(-c4cc5c(-c6ccc(F)cc6)cccc5[nH]4)n[nH]c3cn2)c1 [Compound 36, N-(5-(3-(4-(4-Fluorophenyl)-1H-indol-2-yl)-1H-pyrazolo[3,4-c]pyridin-5-yl)pyridin-3-yl)pivalamide] | 872 | 5.96 | 1630 | 1010 |
| CC(C)(C)CC(=O)Nc1cncc(-c2cc3c(-c4cc5c(-c6ccccc6F)cccc5[nH]4)n[nH]c3cn2)c1 [Compound 72, N-(5-(3-(4-(2-Fluorophenyl)-1H-indol-2-yl)-1H-pyrazolo[3,4-c]pyridin-5-yl)pyridin-3-yl)-3,3-dimethylbutanamide] | 1700 | 4.43 | 3210 | 701 |
| FC1(F)CCN(Cc2cncc(-c3cc4c(-c5cc6c(-c7cccnc7)cccc6[nH]5)n[nH]c4cn3)c2)C1 [Compound 110, 5-(5-((3,3-Difluoropyrrolidin-1-yl)methyl)pyridin-3-yl)-3-(4-(pyridin-3-yl)-1H-indol-2-yl)-1H-pyrazolo[3,4-c]pyridine] | 137 | 1.07 | 422 | 81 |
| CC(C)CC(=O)Nc1cncc(-c2cc3c(-c4cc5c(-c6ccncc6)cccc5[nH]4)n[nH]c3cn2)c1 [Compound 114, 3-Methyl-N-(5-(3-(4-(pyridin-4-yl)-1H-indol-2-yl)-1H-pyrazolo[3,4-c]pyridin-5-yl)pyridin-3-yl)butanamide] | 469 | 6.98 | 1080 | 33 |

The next lines start with results.

| EC50 [1] [nM] | EC50 (SW480 colon cancer cells) [µM] | EC50 (IL-6 (THP-1 cells)) [nM] | Structure (SMILES) | EC50 [2] [nM] |
| --- | --- | --- | --- | --- |
| 1350 | 4.93 | 7520 | CN(C)Cc1cncc(-c2cc3c(-c4cc5c(-c6cccc(F)c6)cccc5[nH]4)n[nH]c3cn2)c1 [Compound 13, 1-(5-(3-(4-(3-Fluorophenyl)-1H-indol-2-yl)-1H-pyrazolo[3,4-c]pyridin-5-yl)pyridin-3-yl)-N,N-dimethylmethanamine] | 2200 |
| 1030 | 3.95 | 3090 | Fc1cccc(-c2cccc3[nH]c(-c4n[nH]c5cnc(-c6cncc(CN7CCC(F)(F)C7)c6)cc45)cc23)c1 [Compound 26, 5-(5-((3,3-Difluoropyrrolidin-1-yl)methyl)pyridin-3-yl)-3-(4-(3-fluorophenyl)-1H-indol-2-yl)-1H-pyrazolo[3,4-c]pyridine] | 92 |
| 2240 | 3.53 | 3600 | Fc1cccc(-c2cccc3[nH]c(-c4n[nH]c5cnc(-c6ccccn6)cc45)cc23)c1 [Compound 28, 3-(4-(3-Fluorophenyl)-1H-indol-2-yl)-5-(pyridin-2-yl)-1H-pyrazolo[3,4-c]pyridine] | 1180 |
| 740 | 0.909 | 2570 | Fc1ccccc1-c1cccc2[nH]c(-c3n[nH]c4cnc(-c5cccnc5)cc34)cc12 [Compound 60, 3-(4-(2-Fluorophenyl)-1H-indol-2-yl)-5-(pyridin-3-yl)-1H-pyrazolo[3,4-c]pyridine] | 90 |
| 494 | 1.61 | 3100 | CC(C)Nc1cncc(-c2cc3c(-c4cc5c(-c6ccccc6F)cccc5[nH]4)n[nH]c3cn2)c1 [Compound 68, 5-(3-(4-(2-Fluorophenyl)-1H-indol-2-yl)-1H-pyrazolo[3,4-c]pyridin-5-yl)-N-isopropylpyridin-3-amine] | 215 |
